Assay results taken from US20020137722A1, “Method for treating a patient with neoplasia by treatment with a paclitaxel derivative” (priority 1998, published 2002).

Columns and labels:
cGMP-PDE = cGMP-PDE inhibition assay, enzyme from HT-29 cultured tumor cells; type: biochemical, human; settings: for cGMP PDE % Inhibition at 100 μM: 100 μM (test compounds)
HT-29 cells [1] = assay: HT-29 tumor cell growth inhibition, SRB assay; type: cell-based, human; set-up: Growth Inhibition: key to the marks not given beside the values; settings: for Growth inhibitory activity % Inhibition at 100 μM: 100 μM single dose
[2] = test system: HT-29 colon adenocarcinoma cells; assay: Apoptosis by DNA fragmentation assay in HT-29 cells; type: cell-based, human
COX = COX inhibition; type: biochemical
[3] = test system: premalignant lesions in mouse mammary gland organ culture; assay: Mammary gland organ culture model, DMBA-induced premalignant lesions; settings: for inhibition of formation of premalignant lesions: mammary gland organ culture
Procedure: For example, female BALB/c mice can be treated with a combination of estradiol and progesterone daily, in order to prime the glands to be responsive to hormones in vitro. The animals are sacrificed and thoracic mammary glands are excised aseptically and incubated for ten days in growth media supplemented with insulin, prolactin, hydrocortisone, and aldosterone. DMBA (7,12-dimethylbenz(a)anthracene) is added to medium to induce the formation of premalignant lesions. Fully developed lands are then deprived of prolactin, hydrocortisone, and aldosterone, resulting in the regression of the glands but not the pre malignant lesions.
The test compound is dissolved in DMSO and added to the culture media for the duration of the culture period. At the end of the culture period, the glands are fixed in 10% formalin, stained with alum carmine, and mounted on glass slides. The extent of the area occupied by the mammary lesions can be quantitated by projecting an image of the gland onto a digitation pad. The area covered by the gland is traced on the pad and considered as 100% of the area. The space covered by each of the unregressed structures is also outlined on the digitization pad and quantitated by the computer.
The incidence of forming mammary lesions is the ratio of the glands with mammary lesions to […]. The incidence of mammary lesions in test compound treated glands is compared with that of the untreated glands.
Mammary gland organ culture experiments were performed as previously described (Mehta and Moon, Cancer Research, 46: 5832-5835, 1986). […] The data support the hypothesis that cyclooxygenase inhibition is not necessary for the anti-neoplastic properties of desired compounds.

[4] = test system: PDE peak B (novel cGMP-PDE); assay: cGMP hydrolysis by PDE peak B isolated from SW-480 cells; type: biochemical, human
PDE peak A (PDE5) = target: T1, PDE peak A (PDE5) (Homo sapiens, UniProt O76074); assay: cGMP hydrolysis by PDE peak A isolated from SW-480 cells; type: biochemical
T1 construct: SW-480 cells are collected and homogenized; The homogenate is centrifuged, and the supernatant is loaded onto a DEAE-Trisacryl M column; endogenous in cells; host or cells: SW-480 human colon adenocarcinoma cells (DEAE-Trisacryl M fraction, peak A)

[5] = reversible; cited from earlier work
HT-29 cells [6] = assay: Cyclic nucleotide (cGMP, cAMP) levels in HT-29 cells by radioimmunoassay; type: cell-based, human; settings: HT-29 cells treated 30 minutes
Procedure: The amount of PDE activity can be determined by assaying for the amount of cyclic GMP in the extract of treated cells using a radioimmunoassay (RIA). In this procedure, a neoplastic cell line is incubated with a test compound. […]
It has been observed that a compound which is useful in the practice of this invention (i.e.. one that selectively induces apoptosis in neoplastic cells, but not substantially in normal cells) follows a time course consistent with cGMP-specific PDE inhibition. […] The intracellular targets of these drug actions are being studied further, but current data support the concert that the initial rise in cGMP content and the subsequent fall in cGMP content precede apoptosis in neoplastic cells exposed to test compounds useful in this invention. To determine the cyclic AMP content in cell extracts, radioimmunoassay techniques similar to those described above for cGMP are used.

HT-29 cells [7] = assay: Apoptosis and necrosis by morphology (acridine orange/ethidium bromide) in HT-29 cells; type: cell-based, human; settings: 120 μM, time course
Procedure: Growth inhibition (FIG. 9A, top) was measured by counting viable cells after trypan blue staining. Apoptosis (FIG. 9B, bottom) was measured by morphological determination following staining with acridine orange and ethidium bromide as described previously and Cohen, In: Current Protocols in Immunology, 3.17.1-3.17.16 New York, John Wiley and Sons, 1992). […] All data were collected from the same experiment.
Following treatment with a test compound, cultures can be assayed for apoptosis and necrosis by fluorescent microscopy following labeling with acridine orange and ethidium bromide. […]
Reference compounds and test compounds were analyzed for their cGMP-specific PDE inhibitory activity in accordance with the protocols for the assay, supra. […] Apoptotic and necrotic cell death was determined as previously described (Duke and Cohen, In: Current Protocols in Immunology, 3.17.1-3.17.16, New York. John Wiley and Sons, 1992). […]
The apoptosis inducing activity for a series of phosphodiesterase inhibitors was determined. […] Apoptosis and necrosis were determined morphologically after acridine orange and ethidium bromide labeling in accordance with the assay described supra.

## CCN(CC)CCSC12CC(=O)OC1(C)/C(=C/c1ccc(S(C)(=O)=O)cc1)c1ccc(F)cc12 (racemic) [A, rac-threo-(E)-1-(N,N′-diethylaminoethanethio)-1-(butan-1′,4′-olido)-[3′,4′:1,2]-6-fluoro-2-methyl-3-(p-methylsulfonylbenzylidene)-indan]
cGMP-PDE
  cGMP PDE % Inhibition at 100 μM: <25%
HT-29 cells [1]
  Growth inhibitory activity % Inhibition at 100 μM: 68%
[2]; 100 μM
  Apoptosis inducing activity, Fold induction at 100 μM: <2.0 fold
COX; activity profile
  COX Inhibition: −

## CC(=O)N[C@@H](CSC12CC(=O)OC1(C)/C(=C/c1ccc(S(C)(=O)=O)cc1)c1ccc(F)cc12)C(=O)O (mixture of isomers) [D, rac-(E)-1-(butan-1′,4′-olide)-[3′,4′:1,2]-6-fluoro-2-methyl-3-(p-methylsulfonylbenzylidene)-1S-indanyl-N-acetylcysteine]
cGMP-PDE; activity profile
  PDE Inhibition: −
HT-29 cells [1]
  Growth inhibitory activity % Inhibition at 100 μM: 78%
HT-29 cells [1]; activity profile
  Growth Inhibition: ++
[2]; activity profile
  Apoptosis: −
[3]; activity profile
  Mammary Gland Organ Culture: −
COX; activity profile
  COX Inhibition: −

## CC1=C(CC(=O)O)c2cc(F)ccc2/C1=C\c1ccc(Cl)cc1 [C, (Z)-5-Fluoro-2-methyl-1-(p-chlorobenzylidene)-3-acetic acid]
HT-29 cells [1]
  Growth inhibitory activity % Inhibition at 100 μM: 80%

## COc1cc(C=C2C(C)=C(CC(=O)O)c3cc(F)ccc32)cc(OC)c1OC [Compound B, (Z)-5-Fluoro-2-methyl-1-(3,4,5-trimethoxybenzylidene)-3-acetic acid]
cGMP-PDE
  cGMP PDE % Inhibition at 100 μM: <25%
COX; 100 μM
  COX Inhibition: did not inhibit COX
COX; activity profile
  COX Inhibition: −

## O=C([O-])C1CCN(c2nc(NCc3ccc4c(c3)OCO4)c3cc(Cl)ccc3n2)CC1.[Na+] [Compound E4021]
[4]
  sensitivity of the new cGMP-PDE (peak B) to inhibition: relatively insensitive
HT-29 cells [1]
  growth inhibition of neoplastic cells: do not have significant apoptosis-inducing (Table 6) or growth-inhibiting
  Growth inhibitory activity % Inhibition at 100 μM: <50%
[2]
  apoptosis induction in neoplastic cells: do not have significant apoptosis-inducing

## COc1cc(/C=C2/C(C)=C(CC(=O)NCc3ccccc3)c3cc(F)ccc32)cc(OC)c1OC [Compound E, (Z)-5-Fluoro-2-methyl-1-(3,4,5-trimethoxybenzylidene)-3-indenylacetamide, N-benzyl]
[2]
  apoptosis induction in neoplastic cells: induce apoptosis in neoplastic cells

## CC1=C(CC(=O)O)c2cc(F)ccc2/C1=C\c1ccc(S(C)(=O)=O)cc1 [Exisulind, (Z)-5-fluoro-2-methyl-1-[[4-(methylsulfonyl)phenyl]methylene]indene-3-yl acetic acid]
PDE peak A (PDE5)
  inhibition of peak A / PDE5 activity: inhibits both PDES and the new cGMP-PDE
[4]
  sensitivity of the new cGMP-PDE (peak B) to inhibition: inhibits both PDES and the new cGMP-PDE
[3]
  inhibition of formation of premalignant lesions: effectively inhibit the formation of premalignant lesions
[5]
  side effects at doses higher than the recommended therapeutic levels: elevated levels of liver enzymes

## CC1(C)C(=O)Nc2ccc(C3=NNC(=O)CC3)cc21 [Indolidan]
[4]
  sensitivity of the new cGMP-PDE (peak B) to inhibition: relatively insensitive

## COc1ccc(C2CNC(=O)C2)cc1OC1CCCC1 (centres unmarked) [Rolipram]
[4]
  sensitivity of the new cGMP-PDE (peak B) to inhibition: relatively insensitive

## CCCc1nn(C)c2c(=O)[nH]c(-c3cc(S(=O)(=O)N4CCN(C)CC4)ccc3OCC)nc12 [Sildenafil]
PDE peak A (PDE5)
  inhibition of peak A / PDE5 activity: inhibited activity of peak A
HT-29 cells [1]
  growth inhibition of neoplastic cells: do not have significant apoptosis-inducing (Table 6) or growth-inhibiting
[2]
  apoptosis induction in neoplastic cells: do not have significant apoptosis-inducing

## CSc1ccc(/C=C2/C(C)=C(CC(=O)O)c3cc(F)ccc32)cc1 [Sulindac sulfide]
HT-29 cells [6]
  increase in levels of cGMP: greater than 50%
HT-29 cells [6]; Homo sapiens, 0.5 h, read-out: IC50 value for increase of cGMP levels
  IC50: 7.3 µM
[2]
  apoptosis induction in neoplastic cells: induce apoptosis in neoplastic cells
HT-29 cells [7]
  apoptosis, morphological determination: an increase in apoptosis
[3]
  inhibition of formation of premalignant lesions: inactive

## CCOC(=O)C1=C[C@]2(CC)CCCN3CCc4c(n1c1ccccc41)[C@@H]32 [Vinpocetine]
[4]
  sensitivity of the new cGMP-PDE (peak B) to inhibition: relatively insensitive

## CCCOc1ccccc1-c1nc2nn[nH]c2c(=O)[nH]1 [Zaprinast]
[4]
  sensitivity of the new cGMP-PDE (peak B) to inhibition: relatively insensitive
HT-29 cells [1]
  growth inhibition of neoplastic cells: do not have significant apoptosis-inducing (Table 6) or growth-inhibiting
[2]
  apoptosis induction in neoplastic cells: do not have significant apoptosis-inducing

## CC1=C(CC(=O)O)c2cc(F)ccc2/C1=C/c1ccc([S+](C)[O-])cc1 (centres unmarked) [sulindac sulfoxide]
[3]
  inhibition of formation of premalignant lesions: effectively inhibit the formation of premalignant lesions
